From patent US20240082282A1 (priority 2020, published 2024)
Read-outs that look alike come from different tables or passages of the source.

Experiments:
[1] = tested on: Fusobacterium nucleatum KLE 2428; assay type: cell-based; conditions: Fusobacterium nucleatum KLE 2428, anaerobic, stool isolate
[2] = tested on: Clostridium tertium KLE 2303; assay type: cell-based; conditions: Clostridium tertium KLE 2303, anaerobic, stool isolate
[3] = tested on: Clostridium perfringens KLE 2326; experiment: microbe, parasite or virus in culture; assay type: cell-based; conditions: Clostridium perfringens KLE 2326, anaerobic, stool isolate
[4] = tested on: Staphylococcus aureus HG003; assay type: cell-based
[5] = tested on: Staphylococcus epidermidis KLE 2378; assay type: cell-based; conditions: Staphylococcus epidermidis KLE 2378, anaerobic, stool isolate
[6] = tested on: Shigella sonnei ATCC 25931; assay type: cell-based
Escherichia coli MG1655 = assay type: cell-based
[7] = tested on: Pseudomonas aeruginosa PAO1; assay type: cell-based
[8] = tested on: Streptococcus salivarius KLE 2370; assay type: cell-based; conditions: Streptococcus salivarius KLE 2370, anaerobic, stool isolate
[9] = tested on: Streptococcus parasanguinis KLE 2375; assay type: cell-based; conditions: Streptococcus parasanguinis KLE 2375, anaerobic, stool isolate
[10] = tested on: Bifidobacterium longum ATCC BAA-999; assay type: cell-based
[11] = tested on: Bacteroides nordii KLE 2369; assay type: cell-based; conditions: Bacteroides nordii KLE 2369, anaerobic, stool isolate
[12] = tested on: Streptococcus sanguinis KLE 2374; assay type: cell-based; conditions: Streptococcus sanguinis KLE 2374, anaerobic, stool isolate
[13] = tested on: Parabacteroides merdae KLE 2238; assay type: cell-based; conditions: Parabacteroides merdae KLE 2238, anaerobic, stool isolate
[14] = tested on: Lactobacillus reuteri ATCC 23272; assay type: cell-based
[15] = tested on: Bacteroides fragilis ATCC 25285; assay type: cell-based
[16] = tested on: Blautia producta ATCC 27340; assay type: cell-based; conditions: Blautia producta ATCC 27340, anaerobic
[17] = tested on: Bacteroides vulgatus KLE 2381; assay type: cell-based; conditions: Bacteroides vulgatus KLE 2381, anaerobic, stool isolate
[18] = tested on: Bacteroides eggerthii KLE 2382; assay type: cell-based; conditions: Bacteroides eggerthii KLE 2382, anaerobic, stool isolate
[19] = tested on: Enterobacter cloacae ATCC 13047; assay type: cell-based; conditions: Enterobacter cloacae ATCC 13047, anaerobic
murine gut microbiome = experiment: Impact on the murine fecal microbiome (16S rRNA sequencing)
Method: Stool samples were collected and V4 region of the 16s rRNA gene was amplified using primers and sequenced (IonTorrent).
Fecal pellets were collected 3 days before and 3 days after antibiotic treatment and were stored at −80° C. in PBS. Sequencing of a stool pellet from each mouse from before and after treatment was performed by MR DNA (www.mrdnalab.com, Shallowater, TX, USA) on an Ion Torrent PGM. Using PCR primers, the V4 variable region of the 16SrRNA gene was amplified in a single-step 30 cycle PCR with the HotStarTaq Plus Master Mix Kit (Qiagen, USA). The following conditions were used: 94° C. for 3 minutes and 30 cycles of 94° C. for 30 seconds, 53° C. for 40 seconds and 72° C. for 1 minute, then a final elongation step for 5 minutes at 72° C. […] Barcodes and primers and then sequences<150 bp were removed. Further, sequences with homopolymer runs exceeding 6 bp and sequences with ambiguous calls were removed. The sequences were then denoised, OTUs were generated, and chimeras were removed; OTUs were clustered at 3% divergence. Taxonomic classification was performed using BLASTn against a database derived from RDPII available at www.rdp.cme.msu.edu) and NCBI (www.ncbi.nlm.nih.gov). The change in relative abundance of the most abundant genera from before to after treatment of each individual mouse was reported. Further, raw sequences were processed in Qiita (Gonzalez, A., et al. (2018). Nat Methods 15, 796-798; the contents of which are herein incorporated by reference in its entirety) and were demultiplexed, trimmed to 100 bp, and closed reference OTU picking was performed against the Greengenes database at 97% similarity (McDonald, D. et al. (2012). ISME J 6, 610-618; the contents of which are herein incorporated by reference in its entirety). The alpha diversity based on the Simpson index was calculated in Qiita. The change in the Simpson index was calculated for the fecal microbiome of each mouse from before to after treatment. Statistical significance was calculated using a one-way ANOVA with Tukey's multiple comparisons test (p<0.05).

[20] = tested on: Leptospira biflexa ATCC 23582
[21] = tested on: Borreliella burgdorferi B31
Borreliella miyamotoi = conditions: Borreliella miyamotoi, microaerophilic
B. burgdorferi N40 = experiment: Mouse infection model (IP injection, oral gavage); conditions: for B. burgdorferi culture (% positive) / Mean # of B. burgdorferi/10 mg of skin tissue (qPCR): twice a day for 5 days; for Culture positive (%): C3H, 5 days, whole ear culture; for B. burgdorferi culture from mice: oral gavage twice per day

Hygromycin A
Minimum inhibitory concentration (MIC) [1]: 1 mg/L | Minimum inhibitory concentration (MIC) [2]: 8 mg/L | Minimum inhibitory concentration (MIC) [3]: 8 mg/L | Activity against S. aureus, times lower compared to B. burgdorferi ([4]; S. aureus used in the counter-screen vs B. burgdorferi): 64 times | MIC ([4]; Staphylococcus aureus): 8 µg | Minimum inhibitory concentration (MIC) ([4]; Staphylococcus aureus HG003): 8 mg/L | Minimum inhibitory concentration (MIC) [5]: 32 mg/L | MIC ([6]; Shigella sonnei): 64 µg | Minimum inhibitory concentration (MIC) ([6]; Shigella sonnei ATCC 25931, anaerobic): 64 mg/L | MIC (Escherichia coli MG1655): 128 µg | Minimum inhibitory concentration (MIC) (Escherichia coli MG1655): 128 mg/L | MIC ([7]; Pseudomonas aeruginosa): >128 µg | Minimum inhibitory concentration (MIC) ([7]; Pseudomonas aeruginosa PAO1): >128 mg/L | Minimum inhibitory concentration (MIC) [8]: 2 mg/L | Minimum inhibitory concentration (MIC) [9]: 4 mg/L | MIC ([10]; Bifidobacterium longum): 8 µg | Minimum inhibitory concentration (MIC) ([10]; Bifidobacterium longum ATCC BAA-999, anaerobic): 8 mg/L | Minimum inhibitory concentration (MIC) [11]: 8 mg/L | Minimum inhibitory concentration (MIC) [12]: 16 mg/L | Minimum inhibitory concentration (MIC) [13]: 16 mg/L | MIC ([14]; Lactobacillus reuteri): 32 µg | Minimum inhibitory concentration (MIC) ([14]; Lactobacillus reuteri ATCC 23272, anaerobic): 32 mg/L | MIC ([15]; Bacteroides fragilis): >128 µg | Minimum inhibitory concentration (MIC) ([15]; Bacteroides fragilis ATCC 25285, anaerobic): 32 mg/L | Minimum inhibitory concentration (MIC) [16]: 64 mg/L | Minimum inhibitory concentration (MIC) [17]: 64 mg/L | Minimum inhibitory concentration (MIC) [18]: 64 mg/L | Minimum inhibitory concentration (MIC) [19]: >128 mg/L | Increases in Enterococcaceae or Enterobacteriaceae (murine gut microbiome; HygA 50 mg/kg oral, 5 days): did not lead to increases | Mice that maintained Bacteroidaceae levels (murine gut microbiome; HygA 50 mg/kg oral, 5 days): 1/5 | Mice with decreased Bacteroidaceae (murine gut microbiome; HygA 50 mg/kg oral, 5 days): 3/5 | Mice with increased Bacteroidaceae (murine gut microbiome; HygA 50 mg/kg oral, 5 days): 1/5 | Overall fluctuation of Bacteroidaceae (murine gut microbiome; HygA 50 mg/kg oral, 5 days, not significantly different from untreated): −8.5 % relative abundance | Change in symbiotic Lactobacillus and Lactococcus (murine gut microbiome; after treatment): prominent increase | Changes in the composition of the microbiota (murine gut microbiome; clinically relevant doses, 16S rDNA sequencing, FIG. 8, 9A, 9B): milder | MIC ([20]; Leptospira biflexa): 4 µg | Minimum inhibitory concentration (MIC) ([20]; Leptospira biflexa ATCC 23582): 4 mg/L | MIC [21]: 0.25 mg/L | Minimum inhibitory concentration (MIC) ([21]; Borreliella burgdorferi B31, microaerophilic): 0.25 mg/L | MIC (Borrelia bavariensis; B. bavariensis): 0.25 mg/L | MIC (Borrelia bavariensis; Borrelia bavariensis): 0.25 µg | Minimum inhibitory concentration (MIC) (Borrelia bavariensis; Borreliella bavariensis, microaerophilic): 0.25 mg/L | Minimum inhibitory concentration (MIC) (Borreliella miyamotoi): 0.25 mg/L | B. burgdorferi culture (% positive) (B. burgdorferi N40; 25 mg/kg, oral gavage): 50% | Mean # of B. burgdorferi/10 mg of skin tissue (qPCR) (B. burgdorferi N40; 25 mg/kg, oral gavage): <1 B. burgdorferi/10 mg of skin t | B. burgdorferi culture (% positive) (B. burgdorferi N40; 50 mg/kg, oral gavage): 0% | Mean # of B. burgdorferi/10 mg of skin tissue (qPCR) (B. burgdorferi N40; 50 mg/kg, oral gavage): <1 B. burgdorferi/10 mg of skin t | B. burgdorferi culture (% positive) (B. burgdorferi N40; 70 mg/kg, oral gavage): 0% | Mean # of B. burgdorferi/10 mg of skin tissue (qPCR) (B. burgdorferi N40; 70 mg/kg, oral gavage): <1 B. burgdorferi/10 mg of skin t | B. burgdorferi culture (% positive) (B. burgdorferi N40; 75 mg/kg, IP injection): 0% | Mean # of B. burgdorferi/10 mg of skin tissue (qPCR) (B. burgdorferi N40; 75 mg/kg, IP injection): <1 B. burgdorferi/10 mg of skin t | B. burgdorferi culture (% positive) (B. burgdorferi N40; 250 mg/kg, oral gavage): 0% | Mean # of B. burgdorferi/10 mg of skin tissue (qPCR) (B. burgdorferi N40; 250 mg/kg, oral gavage): <1 B. burgdorferi/10 mg of skin t | Culture positive (%) (B. burgdorferi N40; intraperitoneal injection, daily dose 100 mg/kg/day): 0% | Culture positive (%) (B. burgdorferi N40; oral gavage, daily dose 50 mg/kg/day): 50% | Culture positive (%) (B. burgdorferi N40; oral gavage, daily dose 100 mg/kg/day): 0% | Culture positive (%) (B. burgdorferi N40; oral gavage, daily dose 140 mg/kg/day): 0% | Culture positive (%) (B. burgdorferi N40; oral gavage, daily dose 500 mg/kg/day): 0% | Clearance of infection (B. burgdorferi N40; IP injection twice a day, after 5 days of treatment, similarly to ceftriaxone control): cleared the infection | B. burgdorferi culture from mice (B. burgdorferi N40; 10 and 25 mg/kg): B. burgdorferi were cultured from mice | B. burgdorferi culture from mice (B. burgdorferi N40; doses higher than 25 mg/kg): not at any of the higher doses | PCR from ear, joint and heart tissue (B. burgdorferi N40; oral gavage, doses above 50 mg/kg): negative
